The source of these data is patent US8178688B2, “Benzamidine derivatives, process for the preparation thereof and pharmaceutical composition comprising the same” (Dong Wha Pharmaceutical Co., Ltd., priority 2004, dated 2012).

Where two headings read alike, the source gives them in different places.

Data set [1] concerns osteoclast differentiation. Briefly: Inhibitory effects on osteoclast differentiation (co-culture of bone marrow cells with osteoblast, TRAP staining). It is filed as cell-based, mice. The note with it: Mus musculus, Osteoclast, 168 h, read-out: % inhibitory activity on osteoclastogenesis. The gist of the method: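 Percent inhibition versus control is based on microscope counts of TRAP-positive osteoclasts (3 or more nuclei) after 7 days of compound exposure. Cultures paired ddY mouse marrow cells with ICR calvarial osteoblasts, driven by dexamethasone 10^−7M plus vitamin D3 10^−8M, with medium and compound changed every 2–3 days.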

A further data set concerns cells. As to the kind of experiment: Cytotoxicity test (MTT). It is filed as cell-based. As to conditions: 10^−6M, 72 hrs, compared with the control group. How it is done: Cytotoxic effect of benzamidine derivatives was evaluated by the experiment described below.
The test substance was diluted in appropriate solvent at 10^−2M concentration. […] Cells to be used in cytotoxitic test were plated on a 96-well microplate in a dose of 1×10^4 cell/100 μL per well and cultured for 72 hrs. 25 μL of MTT [3-(4,5-dimethyl-2-thiazolyl)-2,5-diphenyl-2H-tetrazolium bromide] dissolved in PBS at 2 mg/mL were added before 4 hrs of the end of culture. After reaction, the plates were centrifuged, medium was decanted and 100 μL of DMSO was added to dissolve formazan. Lastly, the absorbance of developed plates was measured at 540 nm.

Setting [2] is: 1 μm, co-culture of bone marrow cells and osteoblast, 7 days, TRAP-positive osteoclasts versus controls.
[3] abbreviates: 1 m, co-culture of bone marrow cells and osteoblast, 7 days, TRAP-positive osteoclasts versus controls.

As for `N=C(NO)c1ccc(OCCCCCOc2ccc(-c3csc(C4CCCCC4)n3)cc2)cc1` [Example 8, N-hydroxy-4-(5-[4-(2-cyclohexyl-1,3-thiazol-4-yl)phenoxy]pentoxy)-benzamidine], in data set [1] (setting [2]), the inhibition at 1 µM amounted to 88.3%. For the same compound, the “Survival rates of the cells” value in the data set on cells (MC3T3-E1 cells) is 76.9%; in the data set with cells (ST2 cells), 46.2%.

As for `Cc1sc(C(C)(C)C)nc1-c1ccc(OCCCCCOc2ccc(C(=N)NO)cc2)cc1` [Example 16, N-hydroxy-4-(5-[4-(2-t-butyl-5-methyl-1,3-thiazol-4-yl)phenoxy]pentoxy)-benzamidine], the inhibition at 1 µM in data set [1] turned out to be 64.3%. Further, the figures for the “Survival rates of the cells” value in the data set on cells (MC3T3-E1 cells) and with cells (ST2 cells) were 39.6% and 30.1%, respectively.

Regarding `CCCCc1sc(C(C)C)nc1-c1ccc(OCCCCCOc2ccc(C(=N)NO)cc2)cc1` [Example 32, N-hydroxy-4-(5-[4-(5-butyl-2-isopropyl-1,3-thiazol-4-yl)phenoxy]pentoxy)-benzamidine], the inhibition at 1 µM in data set [1] (setting [2]) was found to be 59.4%. The “Survival rates of the cells” value with cells (MC3T3-E1 cells) is listed as 100.0%; with cells (ST2 cells), 55.1%.

For `CCCCc1sc(C2CCCCC2)nc1-c1ccc(OCCCCCOc2ccc(C(=N)NO)cc2)cc1` [Example 35, N-hydroxy-4-(5-[4-(5-butyl-2-cyclohexyl-1,3-thiazol-4-yl)phenoxy]pentoxy)-benzamidine], in data set [1], the inhibition at 1 µM is 69.8%. Further, the “Survival rates of the cells” value in the data set with cells (MC3T3-E1 cells) is recorded as 73.6%; in the data set with cells (ST2 cells), 56.3%.

For `CCCCc1sc(C(C)(C)C)nc1-c1ccc(OCCCCCOc2ccc(C(=N)NO)cc2)cc1` [Example 37, N-hydroxy-4-(5-[4-(5-butyl-2-t-butyl-1,3-thiazol-4-yl)phenoxy]pentoxy)-benzamidine], the inhibition at 1 µM in data set [1] came out at 52.9%. For the same compound, the “Survival rates of the cells” value in the data set with cells (MC3T3-E1 cells) is given as 74.4%; with cells (ST2 cells), 40.5%.

Consider `N=C(NO)c1ccc(OCCCCCOc2ccc(-c3nc(-c4ccccc4)sc3Cc3ccccc3)cc2)cc1` [Example 40, N-hydroxy-4-(5-[4-(5-benzyl-2-phenyl-1,3-thiazol-4-yl)phenoxy]pentoxy)-benzamidine], for which, in data set [1] (setting [2]), the inhibition at 1 µM is 60.1%. Also, the entries for the “Survival rates of the cells” value in the data set on cells (MC3T3-E1 cells) and in the data set with cells (ST2 cells) were 100.0% and 53.3%, respectively.

As to `Cc1nc(-c2ccc(OCCCCCOc3ccc(C(=N)NO)cc3)cc2)c(CC2CCCC2)s1` [Example 45, N-hydroxy-4-(5-[4-(5-cyclopentylmethyl-2-methyl-1,3-thiazol-4-yl)phenoxy]pentoxy)-benzamidine], the inhibition at 1 µM in data set [1] (setting [2]) was 97.7%. The figures for the “Survival rates of the cells” value in the data set with cells (MC3T3-E1 cells) and with cells (ST2 cells) were 75.9% and 37.0%, respectively.

With `CCc1nc(-c2ccc(OCCCCCOc3ccc(C(=N)NO)cc3)cc2)c(CC2CCCC2)s1` [Example 46, N-hydroxy-4-(5-[4-(5-cyclopentylmethyl-2-ethyl-1,3-thiazol-4-yl)phenoxy]pentoxy)-benzamidine], the inhibition at 1 µM in data set [1] (setting [2]) stood at 96.9%. For the same compound, the results for the “Survival rates of the cells” value with cells (MC3T3-E1 cells) and in the data set with cells (ST2 cells) were 100.0% and 48.3%, respectively.

On to `N=C(NO)c1ccc(OCCCCCOc2ccc(-c3nc(-c4ccccc4)sc3CC3CCCC3)cc2)cc1` [Example 48, N-hydroxy-4-(5-[4-(5-cyclopentylmethyl-2-phenyl-1,3-thiazol-4-yl)phenoxy]pentoxy)-benzamidine], for which the inhibition at 1 µM in data set [1] (setting [2]) was 72.1%. Also, the “Survival rates of the cells” value with cells (MC3T3-E1 cells) is listed as 100.0%; in the data set with cells (ST2 cells), 51.2%.

Turning to `N=C(NO)c1ccc(OCCCCCOc2ccc(-c3nc(-c4cccnc4)sc3CC3CCCC3)cc2)cc1` [Example 49, N-hydroxy-4-(5-[4-(5-cyclopentylmethyl-2-pyridin-3-yl-1,3-thiazol-4-yl)phenoxy]pentoxy)-benzamidine], the inhibition at 1 µM in data set [1] (setting [2]) was 77.1%. Moreover, the figures for the “Survival rates of the cells” value in the data set on cells (MC3T3-E1 cells) and in the data set on cells (ST2 cells) were 83.5% and 39.0%, respectively.

On to `N=C(NO)c1ccc(OCCCCCOc2ccc(-c3nc(C4CCCCC4)sc3CC3CCCC3)cc2)cc1` [Example 50, N-hydroxy-4-(5-[4-(5-cyclopentylmethyl-2-cyclohexyl-1,3-thiazol-4-yl)phenoxy]pentoxy)-benzamidine], for which the inhibition at 1 µM in data set [1] was determined as 79.8%. Also, the “Survival rates of the cells” value in the data set with cells (MC3T3-E1 cells) came out at 81.0%; in the data set on cells (ST2 cells), 61.0%.

Regarding `CCCCCc1nc(-c2ccc(OCCCCCOc3ccc(C(=N)NO)cc3)cc2)c(CC2CCCC2)s1` [Example 51, N-hydroxy-4-(5-[4-(5-cyclopentylmethyl-2-pentyl-1,3-thiazol-4-yl)phenoxy]pentoxy)-benzamidine], the inhibition at 1 µM in data set [1] came to 74.8%. Further, the “Survival rates of the cells” value in the data set with cells (MC3T3-E1 cells) came to 95.5%; in the data set with cells (ST2 cells) it was 66.5%.

Take `N=C(NO)c1ccc(OCCCCCOc2ccc(-c3csc(N)n3)cc2)cc1` [Example 57, N-hydroxy-4-(5-[4-(2-amino-1,3-thiazol-4-yl)phenoxy]pentoxy)-benzamidine]: in data set [1] (setting [2]), the inhibition at 1 µM came to 60.4%. In addition, the “Survival rates of the cells” value turned out to be 52.1% in the data set on cells (MC3T3-E1 cells) and 19.9% with cells (ST2 cells).

`CCCCc1sc(N)nc1-c1ccc(OCCCCCOc2ccc(C(=N)NO)cc2)cc1` [Example 63, N-hydroxy-4-(5-[4-(2-amino-5-butyl-1,3-thiazol-4-yl)phenoxy]pentoxy)-benzamidine]: the inhibition at 1 µM in data set [1] (setting [3]) came out at 56.5%. Moreover, the “Survival rates of the cells” value is 52.5% in the data set on cells (MC3T3-E1 cells) and 29.3% in the data set with cells (ST2 cells).

For the compound `N=C(NO)c1ccc(OCCCCCOc2ccc(-c3nc(N)sc3CC3CCCC3)cc2)cc1` [Example 67, N-hydroxy-4-(5-[4-(2-amino-5-cyclopentylmethyl-1,3-thiazol-4-yl)phenoxy]pentoxy)-benzamidine], the inhibition at 1 µM in data set [1] (setting [3]) stood at 81.4%. The “Survival rates of the cells” value came out at 68.9% in the data set on cells (MC3T3-E1 cells) and 40.0% with cells (ST2 cells).

Regarding `CNc1nc(-c2ccc(OCCCCCOc3ccc(C(=N)NO)cc3)cc2)c(C)s1` [Example 86, N-hydroxy-4-(5-[4-(5-methyl-2-methylamino-1,3-thiazol-4-yl)phenoxy]pentoxy)-benzamidine], the inhibition at 1 µM in data set [1] (setting [3]) was 52.9%. The “Survival rates of the cells” value with cells (MC3T3-E1 cells) was determined as 100.0%; in the data set on cells (ST2 cells), 48.6%.

Turning to `CCNc1nc(-c2ccc(OCCCCCOc3ccc(C(=N)NO)cc3)cc2)c(C)s1` [Example 87, N-hydroxy-4-(5-[4-(2-ethylamino-5-methyl-1,3-thiazol-4-yl)phenoxy]pentoxy)-benzamidine], in data set [1] (setting [3]), the inhibition at 1 µM was 58.1%. The “Survival rates of the cells” value came out at 97.3% with cells (MC3T3-E1 cells) and 49.8% with cells (ST2 cells).

Turning to `CCCNc1nc(-c2ccc(OC(C)CCCOc3ccc(C(=N)NO)cc3)cc2)c(C)s1` (stereo not drawn) [Example 88, N-hydroxy-4-(4-[4-(5-methyl-2-propylamino-1,3-thiazol-4-yl)phenoxy]pentoxy)-benzamidine], the inhibition at 1 µM in data set [1] (setting [3]) was 15.9%. In addition, the “Survival rates of the cells” value with cells (MC3T3-E1 cells) is 94.3%; in the data set on cells (ST2 cells) it was 48.7%.

For the compound `Cc1sc(NC(=O)c2ccncc2)nc1-c1ccc(OCCCCCOc2ccc(C(=N)NO)cc2)cc1` [Example 91, N-hydroxy-4-(5-[4-(5-methyl-2-(4-pyridylcarbonyl)amino-1,3-thiazol-4-yl)phenoxy]pentoxy)-benzamidine], in data set [1] (setting [3]), the inhibition at 1 µM is 92.9%. Further, the “Survival rates of the cells” value was 41.3% in the data set with cells (MC3T3-E1 cells) and 20.8% with cells (ST2 cells).
